Converted amounts (≈) assume the structure as drawn. Where two headings read alike, the source gives them in different places.
What was measured:
[1] = tested on: hiPSC line ZIPi013-E; assay: Manual human EST cytotoxicity assay, MTT, 5 d
Description: (§1) The cytotoxicity assessment with a reduced assay time of 5 days combined with either NADH- or ATP-based detection was also carried out with human induced pluripotent stem cells (hiPSCs). […] Furthermore, differences in the cytotoxicity effects between the hiPSCs and HDFfs were more pronounced than in the mouse cells. Similar to the cytotoxicity-based assay the overall variance in the data is reduced when viability data was obtained by an ATP-based read-out.
(§2) The MTT cell viability assay was performed as described (Seiler and Spielmann [2011]) with modifications. In brief, 96-well cell culture plates were coated with gelatin (0.1%) before plating mESC-D3. All peripheral wells of the assay plate were filled with 200 μl growth media (“blank”). Afterward, NIH/3T3 and mESC-D3 were plated in growth media (1 × 10^4 cells/ml, 50 μl/well). […] Vehicle (PBS) and positive control (5-fluorouracil) wells were also included on all assay plates. Three and 5 days after seeding the cell supernatant was replaced by freshly prepared compound solution (200 μl/well). Seven days after seeding the cell viability was detected. Therefore, the cell supernatant was aspirated from all wells, MTT solution (5 mg/ml) was added (20 μl/well) and the assay plate was incubated for 2 h at 37 °C and 5% CO2 in a humidified atmosphere. Afterward, all liquid was removed from the wells and MTT desorb solution (0.7% SDS in 2-propanol (Carl Roth, Cat. No. 9866.5), pre-warmed to 37 °C) was dispensed (130 μl/well). The assay plate was placed on a shaker for 15 min. Remaining precipitates were suspended by pipetting up and down with a multichannel pipette before measuring the absorption at 570 nm on a microtiter plate reader using 630 nm as a reference wavelength.
(§3) Figure S1: Step-wise evolution of the cytotoxicity assay towards the use of human cell lines. Related to Figure 2. Cytotoxicity assays were carried out with two compound sets on hiPSC line ZIPi013-E and HDFf, from which they were derived. […] A) 5 day MTT assay and manual handling. B) As in A), but using CellTiter-Glo® viability assay. All points in the graph represent the mean of 6 individual data points, including the standard error.

[2] = tested on: HDFf (human dermal fibroblasts of fetal origin); assay: Manual human EST cytotoxicity assay, MTT, 5 d
Description: as §1, §2, §3

[3] = tested on: hiPSC line ZIPi013-E; assay: Manual human EST cytotoxicity assay, CellTiter-Glo, 5 d
Description: as §1
(§4) 96-well cell culture plates were coated with gelatin (0.1%) before plating mESC-D3. All peripheral wells of the assay plate were filled with 200 μl growth media. In order to assess compound toxicity on mESC-D3 and NIH/3T3 cells, cell suspensions of NIH/3T3, and mESC-D3 were prepared in growth media (1 × 10^4 cells/ml) and were transferred to all remaining wells (50 μl/well). A 7-point dilution series in growth media was prepared for each test compound and was transferred to the assay plate 2 h after cell seeding (150 μl/well). Afterward, the cells were incubated in a humidified atmosphere at 37 °C and 5% CO2. Three and 5 days after seeding the cell supernatant was replaced by freshly prepared compound solution (200 μl/well). Seven days after seeding the assay plate was taken out of the incubator and located at room temperature for 10 min, before cell supernatant was aspirated (80 μl/well) and CellTiter-Glo® reagent was dispensed (50 μl/well). The assay plate was placed on a shaker for 1 min and after another 10 min incubation at room temperature in the dark the luminescence signal was detected on a plate reader.
as §3

[4] = tested on: HDFf (human dermal fibroblasts of fetal origin); assay: as above
Description: as §1, §4, §3

[5] = tested on: NIH/3T3; assay: Manual CellTiter-Glo luminescent cell viability assay (7 d or 5 d); assay type: cell-based, mouse; settings: in brackets the two individual experiments
Description: as §4, with “Seven days after seeding the assay plate was taken out of the incubator and located at room temperature for 10 min, before cell supernatant was aspirated (80 μl/well) and CellTiter-Glo® reagent was dispensed (50 μl/well).” left out
(§5) Toxicity data from the MTT and CellTiter-Glo Assay was normalized against the vehicle control (100% viability) and plotted against the logarithmic compound concentration.

[6] = tested on: mESC-D3; assay: as above; assay type: cell-based, mouse; settings: in brackets the two individual experiments
Description: as §4, with “Seven days after seeding the assay plate was taken out of the incubator and located at room temperature for 10 min, before cell supernatant was aspirated (80 μl/well) and CellTiter-Glo® reagent was dispensed (50 μl/well).” left out
as §5

[7] = tested on: NIH/3T3; assay: Automated CellTiter-Glo luminescent cell viability (cytotoxicity) assay, 5 d
Description: The CellTiter-Glo® luminescent cell viability assay (Promega, Cat. No. G7573) was automated in 96-well format on the lab automation platform Fluent® (Tecan, Männedorf, Switzerland). The procedure allowed the testing of six compounds in mESC-D3 and NIH/3T3 cells in parallel. On the first day, PBS was dispensed into the peripheral wells of the assay plates (200 μl/well) using the Multiple Channel Arm (MCA). Mouse ES-D3 and NIH/3T3 cells were plated (50 μl/well, 1 × 10^4 cells/ml)) using the Flexible Channel Arm (FCA) and transported into the Cytomat™ 10 (Thermo Fisher Scientific) for incubation using the Robotic Gripper Arm (RGA). A 7-point dilution series of the test compounds and control solutions were prepared in PBS or DMSO (Carl Roth, Cat. No. HN47.1) under the laminar flow, transferred to a 96-well 0.5-ml Masterblock plate (Greiner bio-one, Cat. No. 786261) and placed on the worktable. On the Fluent the compounds were transferred to a 96-well 2-ml Masterblock plate (Greiner bio-one, Cat. No. 780271) and further diluted in growth media using the FCA. Two hours after cell plating compounds and controls were transferred to the assay plate with the FCA (150 μl/well) and transported back in the Cytomat 10. On day three of the assay, the media was exchanged using the MCA: old media was aspirated and dispensed into a 96-deep-well plate (“waste”), freshly prepared compound, and control solution was dispensed into the assay plate. After two more days of incubation, the cell viability was determined using the CellTiter-Glo assay. The assay plates were transported from the Cytomat 10 to the Carousel (Tecan) to adapt to room temperature. After 25 min the cell supernatant was removed partially (80 μl/well) and CellTiter-Glo reagent was dispensed (50 μl/well). The assay plate was placed on a shaker for 1 min and afterward incubated 25 min in the Carousel before the Luminescence signal was detected on the Infinite M1000 Pro plate reader (Tecan).
as §5

[8] = Manual CellTiter-Glo luminescent cell viability assay (7 d or 5 d); assay type: cell-based, mouse; settings: mouse, in brackets the two individual experiments
Description: as §4, with “Seven days after seeding the assay plate was taken out of the incubator and located at room temperature for 10 min, before cell supernatant was aspirated (80 μl/well) and CellTiter-Glo® reagent was dispensed (50 μl/well).” left out
as §5

Row | SMILES | Cytotoxicity assay MTT, 5 d IC50 ZIPi013-E [1] [µg/mL] | Cytotoxicity assay MTT, 5 d IC50 HDFf [2] [µg/mL] | Cytotoxicity assay CTG, 5 d IC50 ZIPi013-E [3] [µg/mL] | Cytotoxicity assay CTG, 5 d IC50 HDFf [4] [µg/mL] | Cytotoxicity assay CTG, 5 d IC50 NIH/3T3 ([5]; 5 d) | Cytotoxicity assay CTG, 7 d IC50 NIH/ 3T3 ([5]; 7 d) | Cytotoxicity assay CTG, 5 d IC50 mESC-D3 ([6]; 5 d) | Cytotoxicity assay CTG, 7 d IC50 mESC-D3 ([6]; 7 d) | Cytotoxicity assay CTG, 5 d IC50 NIH/3T3 [7] | IC50 at 5 d ([8]; NIH/3T3 cells, read-out: Cytotoxicity assay CTG, 5 d IC50 NIH/3T3) [µg/mL] | IC50 at 7 d ([8]; NIH/3T3 cells, read-out: Cytotoxicity assay CTG, 7 d IC50 NIH/ 3T3) [µg/mL] | IC50 at 5 d ([8]; mESC-D3 cells, read-out: Cytotoxicity assay CTG, 5 d IC50 mESC-D3) [µg/mL] | IC50 at 7 d ([8]; mESC-D3 cells, read-out: Cytotoxicity assay CTG, 7 d IC50 mESC-D3) [µg/mL]
1 | NC(=O)NO [Hydroxyurea, hydroxyurea] | 0.3326 | 4.005 | 0.8652 | 30.15 | 3.12 (> 10; 3.12) µg/ml | 4.83 (> 10; 4.83) µg/ml | 3.19 (4.12; 2.26) µg/ml | 2.37 (2.28; 2.46) µg/ml | 4.01 (3.97; 4.06) μg/ml |  |  |  | 
2 | O=C1NS(=O)(=O)c2ccccc21 [Saccharin, saccharin] |  |  |  |  |  |  |  |  |  | > 1000 | > 1000 | 464 (≈ 2.53 mM) | > 1000
